From patent publication US20130217735A1, “FUNGICIDAL COMPOSITIONS AND METHODS OF USE” (Agri-Food and BioSciences Institute, priority 2010, published 2013)

Key:
[1] = test system: Phytophthora erythroseptica; experiment: Example 7 sensitivity testing of potato tuber pathogens to thiabendazole derivatives; assay type: cell-based; conditions: for Inhibition (%) of mycelial growth: Trial B
Procedure: (§1) In vitro tests of the IL thiabendazolium docusate were performed in comparison to the neutral fungicide using selected isolates of Fusarium spp., the cause of potato dry rot. F. coeruleum and F. culmorum are sensitive to thiabendazole whereas isolates of F. sambucinum are frequently resistant. Isolates of Phoma spp., the cause of gangrene, and Phytophthora erythroseptica, the cause of pink rot, were also tested. All except F. sambucinum ex SASA were isolated in a laboratory. F. sambucinum ex SASA was supplied by SASA (Science and Advice for Scottish Agriculture, Roddinglaw Road, Edinburgh, EH12 9F, UK).
(§2) In each test three replicate plates for each organism per concentration were used and tests were repeated at least once.

[2] = test system: Phoma exigua; experiment: as above; assay type: cell-based; conditions: isolate Phoma exigua 9.1, Trial B
Procedure: as §1, §2

[3] = test system: F. coeruleum; experiment: as above; assay type: cell-based; conditions: Trial B
Procedure: as §1, §2

[4] = test system: F. sambucinum; experiment: as above; assay type: cell-based; conditions: Trial B
Procedure: as §1, §2

[5] = test system: F. culmorum; experiment: as above; assay type: cell-based; conditions: isolate F. culmorum P13, Trial B
Procedure: as §1, §2

[6] = test system: Phoma foveata; experiment: as above; assay type: cell-based; conditions: isolate Phoma foveata BL2 05 T3, Trial B
Procedure: as §1, §2

[7] = test system: P. foveata; experiment: Example 5 agar plate mycelial growth test of TBZ derivatives; conditions: isolate P. foveata BL2 05 T3, Trial A
Procedure: (§3) Both TBZ docusate and TBZ stearate were tested at final concentrations of 250 μm and 25 μm in agar. To prepare the TBZ docusate stock solution for 250 μm, 0.155 g of TBZ docusate prepared according to Trial A was added to a 10 mL volumetric flask and was dissolved in 10 mL of ethanol. The solution was mixed thoroughly. To prepare the TBZ docusate stock solution for 25 μm, 1 ml of the above stock solution was pipetted into a second 10 mL flask and 10 mL ethanol was added. The solution was mixed thoroughly. To prepare the TBZ stearate stock solution for 250 μm, 0.121 g of TBZ stearate was added to a 10 mL volumetric flask and was dissolved in 10 mL ethanol. The solution was mixed thoroughly. To prepare the TBZ stearate stock solution for 25 μm, 1 mL of the 250 μm TBZ stearate stock solution was pipetted into a second 10 mL flask and 10 mL ethanol was added. The solution was mixed thoroughly.
(§4) The agar was prepared and autoclaved. Potato dextrose agar (PDA) was used for the Fusarium species and Phytophthora erythroseptica and malt agar was used for the Phoma species. The agar was allowed to cool to 50° C. Each of the stock solutions was added to the agar at the rate of 10 mL stock solution per liter of agar to give the two final concentrations, for both TBZ stearate and docusate, in agar. Also prepared were a 1% ethanol control (10 mL per liter of agar) and an untreated agar as a second control. The plates were prepared in triplicate for each concentration.
(§5) For each pathogen isolate tested, 3 plates of 250 μm/1, 3 plates of 25 μm/1, 3 plates of 1% ethanol, and 3 plates of untreated agar were inoculated using an agar plug cut with a no. 3 cork borer from the margin of an actively-growing culture on agar. The plates were incubated at an appropriate temperature (usually 18-20° C.) in darkness. The growth rate was monitored and assessed after 5-7 days. The growth was assessed by measuring colony diameters minus plug (two measurements at right-angles) per plate. The percent reduction was calculated with respect to the control.
(§6) Pure thiabendazole (TBZ; 0.5 g) obtained from MSD Agvet (Rahway, N.J.) was dissolved in water (10 mL) by adding the minimum required volume (c. 0.5 mL) of hypophosphorous acid and heating gently with stirring, then made up to 100 mL with water to give a stock solution (25 mM). TBZ docusate (0.155 g) or TBZ stearate (0.121 g) was dissolved in ethanol (100 ml) to give stock solutions (25 mM). A ten-fold dilution of each of these stock solutions was prepared (in water for TBZ and in ethanol for TBZ docusate and stearate). […] In addition, agar with 1% v/v ethanol and unamended agar was prepared (ethanol and unamended controls). The agar was poured into Petri plates (9 cm) and allowed to set.
(§7) Isolates of the appropriate potato tuber pathogens were grown on PDA for Fusarium spp. and Phytophthora erythroseptica or on MA for Phoma spp. Each isolate to be tested was inoculated onto three replicate plates of the two concentrations of each compound and onto ethanol and unamended agar controls using plugs (6 mm diameter) cut from the margins of actively growing cultures. Plates were incubated in darkness at 20° C. and mycelial growth measured (two measurements at right-angles for each plate) after 5-7 days (depending on the growth rates).

[8] = test system: P. exigua; experiment: as above; conditions: isolate P. exigua 9.1, Trial A
Procedure: as §3, §4, §5, §6, §7

[9] = test system: F. sulphureum; experiment: as above; conditions: isolate F. sulphureum ex SASA, 5-7 days, TBZ docusate Trial A
Procedure: as §3, §4, §5, §6, §7

[10] = test system: P. erythroseptica; experiment: as above; conditions: isolate P. erythroseptica BL2/08 P31, Trial A
[11] = test system: F. culmorum; experiment: as above; assay type: cell-based; conditions: isolate F. culmorum P13, Trial A
[12] = test system: F. coeruleum; experiment: as above; conditions: isolate F. coeruleum ex B7/06 T8, Trial A
Procedure: as §3, §4, §5, §6, §7

CCCCCCCCCCCCCCCCCC(=O)O.c1ccc2[nH]c(-c3cscn3)nc2c1 [TBZ stearate, thiabendazolium stearate]
activity against P. erythroseptica compared with thiabendazole alone ([1]; in words, Table 5): did not enhance the activity
Inhibition (%) of mycelial growth ([1]; isolate Phytophthora erythroseptica BL2/08 P31, 25 μM in agar): 10%
Inhibition (%) of mycelial growth ([1]; isolate Phytophthora erythroseptica BL2/08 P31, 250 μM in agar): 54%
Inhibition (%) of mycelial growth ([1]; isolate Phytophthora erythroseptica Rooster Eire, 25 μM in agar): 11%
Inhibition (%) of mycelial growth ([1]; isolate Phytophthora erythroseptica Rooster Eire, 250 μM in agar): 34%
Inhibition (%) of mycelial growth ([2]; 25 μM in agar): 95%
Inhibition (%) of mycelial growth ([2]; 250 μM in agar): 99%
Inhibition (%) of mycelial growth ([3]; isolate F. coeruleum ex B7/06 T8, 25 μM in agar): 99%
Inhibition (%) of mycelial growth ([3]; isolate F. coeruleum ex B7/06 T8, 250 μM in agar): 99%
Inhibition (%) of mycelial growth ([3]; isolate F. coeruleum ex B16/08 P31, 25 μM in agar): 100%
Inhibition (%) of mycelial growth ([3]; isolate F. coeruleum ex B16/08 P31, 250 μM in agar): 100%
Inhibition (%) of mycelial growth ([4]; isolate F. sambucinum L'gall 11, 25 μM in agar): 10%
Inhibition (%) of mycelial growth ([4]; isolate F. sambucinum L'gall 11, 250 μM in agar): 82%
Inhibition (%) of mycelial growth ([4]; isolate F. sambucinum L'gall 53, 25 μM in agar): 20%
Inhibition (%) of mycelial growth ([4]; isolate F. sambucinum L'gall 53, 250 μM in agar): 82%
Inhibition (%) of mycelial growth ([4]; isolate F. sambucinum ex SASA, 25 μM in agar): 24%
Inhibition (%) of mycelial growth ([4]; isolate F. sambucinum ex SASA, 250 μM in agar, vs 1% ethanol control): 89%
Inhibition (%) of mycelial growth ([5]; 25 μM in agar): 100%
Inhibition (%) of mycelial growth ([5]; 250 μM in agar): 100%
Inhibition (%) of mycelial growth ([6]; 25 μM in agar): 97%
Inhibition (%) of mycelial growth ([6]; 250 μM in agar): 99%

c1ccc2[nH]c(-c3cscn3)nc2c1 [TBZ stearate, thiabendazolium stearate]
Inhibition (%) of mycelial growth ([7]; 25 μM in agar): 96%
Inhibition (%) of mycelial growth ([7]; 250 μM in agar): 99%
Inhibition (%) of mycelial growth ([8]; 25 μM in agar): 93%
Inhibition (%) of mycelial growth ([8]; 250 μM in agar): 98%
Inhibition (%) of mycelial growth ([9]; 25 μM in agar): 25%
Inhibition (%) of mycelial growth ([9]; 250 μM in agar): 90%
Inhibition (%) of mycelial growth ([10]; 25 μM in agar): 2%
Inhibition (%) of mycelial growth ([10]; 250 μM in agar): 69%
Inhibition (%) of mycelial growth ([11]; 25 μM in agar): 100%
Inhibition (%) of mycelial growth ([11]; 250 μM in agar): 100%
Inhibition (%) of mycelial growth ([12]; 25 μM in agar): 98%
Inhibition (%) of mycelial growth ([12]; 250 μM in agar): 98%
